Data on 1 compound can be found in patent publication US8148392B2, “2-indolyl imidazo [4,5-d] phenanthroline derivatives and their use in the treatment of cancer” (Lorus Therapeutics Inc., priority 2005, dated 2012).

For the assay, the system named is CCRF-CEM leukemia cells. The experiment in a line: Apoptosis, annexin V-FITC/PI flow cytometry, CCRF-CEM. Type of assay: cell-based, human. The conditions noted are these: 0.1-1 μM, 24 hours. The procedure: The ability of compound 3 to alter the population of cells at different stages of apoptosis was measured by determining the effect of compound 3 on populations of CCRF-CEM leukemia cells treated with vehicle (DMSO), 0.1 μM, 0.25 μM, 0.5 μM, or 1 μM of compound 3 for 24 hours. CCRF-CEM cells were seeded and treated with the above concentrations of compound 3 or 0.1% DMSO vehicle control as described in Example 23. After 24 hours, the cells were collected by centrifugation and re-suspended in growth media to approximately 1×10^6 cells/ml. Then the cells were stained for annexin V binding and PI staining using the annexin V-FITC apoptosis detection kit (Oncogene™ research products, Mass.) and following the manufacturer's RAPID Annexin V Binding protocol. The fluorescence of stained cells was analyzed using FACScan flow cytometer and the Cell Quest program (BD Biosciences, San Jose, Calif.). Data were evaluated using Modfit software (Verity software House, Topsham, Me.) to generate quadrant statistics. Cells stained with Annexin V only are considered to be in early apoptosis, whereas cells stained with both Annexin V and propidium iodide are considered to be in late apoptosis. Cells stained with propidium iodide only are non-viable, whereas no staining indicates viable cells. MOLT-4 leukemia cells were treated similarly.

Each structure is given as a SMILES string.

As to `Cc1[nH]c2ccccc2c1-c1nc2c3cccnc3c3ncccc3c2[nH]1` [Compound 3], the induction of apoptosis entry was “increase in the number of early and late apoptotic cells”.
